Laboratory results reported in US11279733B2, “Peptide antibiotics” (priority 2017, dated 2022).
Converted amounts (≈) assume the structure as drawn. Where two headings read alike, the source gives them in different places. Positions of bridges follow the written chain, without caps; N, C: chain ends. Non-standard residues stand in square brackets, D forms with d. Residues, ends and D or L forms follow the SMILES beside them. *: point of attachment. Decanoyl = CCCCCCCCCC(=O)*; dDab = NCC[C@@H](N)C(=O)O; Octanoyl = CCCCCCCC(=O)*; X6 = CC(C)CCCC(O)CC(=O)*; X8 = CC(C)CCCC(C)CC(=O)*; dDap = NC[C@@H](N)C(=O)O; Dab = NCC[C@H](N)C(=O)O

Columns and labels:
[1] = system: K. pneumoniae ATCC BAA-2146, NDM-1 pos; settings: ATCC BAA-2146
Method: (§1) Bacteria were either obtained from American Type Culture Collection (ATCC; Manassas, Va., USA) or independent academic clinical isolate collections, as listed in Table 18 below. Bacteria were cultured in Nutrient broth (NB; Bacto Laboratories, catalogue No. 234000) or Mueller Hinton broth (MHB; Bacto Laboratories, catalogue No. 211443) at 37° C. overnight with shaking (˜180 RPM). A sample of each culture was then diluted 50-fold in fresh MHB and incubated at 37° C. for 2-3 h with shaking (˜180 RPM). Compound stock solutions were prepared as 0.64 mg/mL or 2.56 mg/mL in water. The compounds, at twice the final desired concentration, were serially diluted 2-fold across the wells of 96-well plates (Polystyrene, Corning, catalogue No. 3370). Mid-log phase bacterial cultures (after 2-3 h incubation) were diluted to a final concentration of 1×10^6 colony forming units (CFU)/mL, and 50 μL was added to each well giving a final cell density of 5×10^5 and a compound concentration range of 32 μg/mL to 0.015 μg/mL (128-0.06 μg/mL against P. aeruginosa PA9704).

[2] = system: P. aeruginosa GN_043, PmxR
Method: as §1

K. pneumoniae ATCC 13883 = settings: ATCC 13883
Method: as §1

[3] = system: K. pneumoniae GN_106, PmxR; settings: GN 106, PmxR
Method: as §1

A. baumannii GN_093 PmxR = settings: GN 093 PmxR
Method: as §1

E. coli ATCC 25922 = settings: ATCC 25922
Method: as §1

[4] = system: S. aureus ATCC 25923, MSSA; settings: ATCC 25923
Method: as §1

[5] = system: P. aeruginosa GN_105, PmxR; settings: GN 105, PmxR
Method: as §1

P. aeruginosa ATCC 27853 = settings: ATCC 27853
Method: as §1

A. baumannii ATCC 19606 = settings: ATCC 19606
Method: as §1

[6] = system: K. pneumoniae GN_102 PmxR; settings: GN 102 PmxR
Method: as §1

[7] = system: K. pneumoniae ATCC 700603, MDR; settings: ATCC 700603
Method: as §1

Structure (SMILES)	MIC K. pneumoniae ATCC BAA-2146, NDM-1 pos [1]	MIC K. pneumoniae ATCC 13883 (K. pneumoniae ATCC 13883)	MIC K. pneumoniae GN_106, PmxR [3]	MIC A. baumannii GN_093 PmxR (A. baumannii GN_093 PmxR)	MIC E. coli ATCC 25922 (E. coli ATCC 25922)	MIC S. aureus ATCC 25923, MSSA [4]	MIC P. aeruginosa GN_105, PmxR [5]	MIC P. aeruginosa ATCC 27853 (P. aeruginosa ATCC 27853)	MIC A. baumannii ATCC 19606 (A. baumannii ATCC 19606)	MIC K. pneumoniae GN_102 PmxR [6]	MIC K. pneumoniae ATCC 700603, MDR [7]	MIC, K. pneumoniae ATCC BAA-2146, NDM-1 pos [1]	MIC P. aeruginosa GN_043, PmxR ([2]; Table 6, polymyxin-resistant)	MIC, K. pneumoniae ATCC 13883 (K. pneumoniae ATCC 13883)	MIC, E. coli ATCC 25922 (E. coli ATCC 25922)	MIC, S. aureus ATCC 25923, MSSA [4]	MIC, P. aeruginosa ATCC 27853 (P. aeruginosa ATCC 27853)	MIC, A. baumannii ATCC 19606 (A. baumannii ATCC 19606)	MIC, K. pneumoniae ATCC 700603, MDR [7]	also measured
CC(C)CCCC(C)CC(=O)N[C@H](CCN)C(=O)N[C@H]1CCNC(=O)[C@H](CC(C)C)NC(=O)[C@H](CCN)NC(=O)[C@H](CCN)NC(=O)[C@H](CC(C)C)NC(=O)[C@@H](Cc2ccccc2)NC(=O)[C@H](CCN)NC1=O (stereo partly drawn) [compound 6523, 3,7-dimethyloctanoic acid-D-Dab-cyc[L-Dab-L-Dab-D-Phe-L-Leu-L-Dab-L-Dab-L-Leu]] (X8-[dDab][Dab][Dab][dF]L[Dab][Dab]L; lactam 2-C)	8 µg/mL (≈ 7.78 µM)	4 µg/mL (≈ 3.89 µM)	32 µg/mL (≈ 31.1 µM)	16 µg/mL (≈ 15.6 µM)	1 µg/mL (≈ 0.972 µM)	32 µg/mL (≈ 31.1 µM)	2 µg/mL (≈ 1.94 µM)	2 µg/mL (≈ 1.94 µM)	>32 µg/mL	16 µg/mL (≈ 15.6 µM)	8 µg/mL (≈ 7.78 µM)	–	–	–	–	–	–	–	–	MIC P. aeruginosa GN_043, PmxR [2]: 2 µg/mL (≈ 1.94 µM)
CCCCCCCC(=O)N[C@H](CN)C(=O)N[C@H]1CCNC(=O)[C@H](CC(C)C)NC(=O)[C@H](CCN)NC(=O)[C@H](CCN)NC(=O)[C@H](CC(C)C)NC(=O)[C@@H](CC(C)C)NC(=O)[C@H](CCN)NC1=O [compound 8978, nC7CO-D-Dap-cyc[L-Dab-L-Dab-D-Leu-L-Leu-L-Dab-L-Dab-L-Leu]] (Octanoyl-[dDap][Dab][Dab][dL]L[Dab][Dab]L; lactam 2-C)	16 µg/mL (≈ 16.8 µM)	16 µg/mL (≈ 16.8 µM)	32 µg/mL (≈ 33.6 µM)	8 µg/mL (≈ 8.4 µM)	4 µg/mL (≈ 4.2 µM)	>32 µg/mL	2 µg/mL (≈ 2.1 µM)	2 µg/mL (≈ 2.1 µM)	32 µg/mL (≈ 33.6 µM)	32 µg/mL (≈ 33.6 µM)	16 µg/mL (≈ 16.8 µM)	–	–	–	–	–	–	–	–	MIC P. aeruginosa GN_043, PmxR ([2]; P. aeruginosa GN_043, PmxR): 4 µg/mL (≈ 4.2 µM)
CC(C)CCCC(O)CC(=O)N[C@@H](CCN)C(=O)N[C@H]1CCNC(=O)[C@H](CC(C)C)NC(=O)[C@H](CCN)NC(=O)[C@H](CCN)NC(=O)[C@H](CC(C)C)NC(=O)[C@@H](Cc2ccccc2)NC(=O)[C@H](CCN)NC1=O (stereo partly drawn) [compound 5566, nC5(7-Me)CH(OH)CH2CO-L-Dab-cyc[L-Dab-L-Dab-D-Phe-L-Leu-L-Dab-L-Dab-L-Leu]] (X6-[Dab][Dab][Dab][dF]L[Dab][Dab]L; lactam 2-C)	–	–	16 µg/mL (≈ 15.5 µM)	16 µg/mL (≈ 15.5 µM)	–	–	4 µg/mL (≈ 3.88 µM)	–	–	32 µg/mL (≈ 31.1 µM)	–	16 µg/mL (≈ 15.5 µM)	2 µg/mL (≈ 1.94 µM)	4 µg/mL (≈ 3.88 µM)	4 µg/mL (≈ 3.88 µM)	2 µg/mL (≈ 1.94 µM)	4 µg/mL (≈ 3.88 µM)	8 µg/mL (≈ 7.76 µM)	8 µg/mL (≈ 7.76 µM)	–
CCCCCCCCCC(=O)N[C@@H](CCN)C(=O)N[C@H]1CCNC(=O)[C@H](CC(C)C)NC(=O)[C@H](CCN)NC(=O)[C@H](CCN)NC(=O)[C@H](CC(C)C)NC(=O)[C@@H](Cc2ccccc2)NC(=O)[C@H](CCN)NC1=O [compound 5568, nC9CO-L-Dab-cyc[L-Dab-L-Dab-D-Phe-L-Leu-L-Dab-L-Dab-L-Leu]] (Decanoyl-[Dab][Dab][Dab][dF]L[Dab][Dab]L; lactam 2-C)	–	–	16 µg/mL (≈ 15.6 µM)	>32 µg/mL	–	–	4 µg/mL (≈ 3.89 µM)	–	–	–	–	8 µg/mL (≈ 7.78 µM)	4 µg/mL (≈ 3.89 µM)	4 µg/mL (≈ 3.89 µM)	8 µg/mL (≈ 7.78 µM)	8 µg/mL (≈ 7.78 µM)	4 µg/mL (≈ 3.89 µM)	16 µg/mL (≈ 15.6 µM)	8 µg/mL (≈ 7.78 µM)	–
